Key:
[1] = biological target: BTK protein in human whole blood (Homo sapiens (Human), UniProt Q06187); test: Btk protein in human whole blood MSD ELISA based assay (BTK degradation); type: cell-based; settings: 6 hours, maximum BTK degradation compared to DMSO only treated samples, read-out: hWB BTK dMax (%)
Method: Btk protein degradation was tested using an Meso Scale Discovery-ELISA system (MSD-ELISA): (1) Test compounds were added to human whole blood; (2) human whole blood cells treated with test compounds were lysed; (3) lysed cells were treated with capture antibody, an antibody to Btk; (4) lysed cells were treated with […] to Btk; and (5) lysed cells were treated with anti-mouse antibody (tagged).
Specifically, about 80 μl of fresh human whole blood from healthy donors was transferred into each well of a 96-well V-bottom plate (Costar, Cat No. 3894). Using a TECAN™ D300e Digital Dispenser (Tecan)), 1:4 serially diluted compounds [(8 pt assay) in DMSO solution (final 0.2%) starting at 3 μM top concentration], were added in duplicate. Thereafter, plates were placed in a 37° C. incubator and incubated for 6 hours.
At the end of incubation, 80 μl of 2×CST lysis buffer (Cell Signaling Technology, Cat No. 9803), prepared from a 10× stock solution, was added per well to lyse the blood. Plates were then sealed with a plate sealer and the samples were frozen overnight at −80° C.
Total amount of BTK protein remaining in the blood samples after compound treatment was measured using MSD-ELISA. After thawing the frozen plates, blood lysates were mixed thoroughly and transferred to small spot high-bind MSD plates (Meso Scale Discovery, Cat No. L45XB-3) and coated with capturing antibody, rabbit anti-human BTK (D3H5) (Cell Signaling Technology, Cat No. 8547CF). Thereafter, primary detection antibody, mouse anti-human BTK monoclonal antibody, (BD Biosciences, Cat No. 611117) and secondary detection antibody, anti-mouse SULFO-TAG (Meso Scale Discovery, Cat No. R32AC-1) were added. The assay plates were read on an MSD S600 plate reader by the addition of 2×MSD read buffer (Meso Scale Discovery, R92TC-1). All reagent transfers, including blood lysis, was conducted using a Biomed i7 liquid handler. From the dose response curves, DC50 values were calculated by averaging data from duplicate experiments. and Curve fitting was done by non-linear regression using GraphPad Prism. The DC50 values are reported in Table 2 in the hWB BTK DC50 (nM) column The Dmax values represent the maximum amount of BTK degradation observed upon compound treatment compared to DMSO only treated samples. The dMax (%) values are reported in Table 2 in the hWB BTK dMax (%) column.

[2] = biological target: BTK in mouse bone marrow (Mus musculus (Mouse), UniProt P35991); test: Mouse Bone Marrow Assay (MSD ELISA of BTK degradation in bone marrow); type: in vivo; settings: female C57BL/6J mice, single dose of Dose A, bone marrow collected after 24 hours
Method: Female C57BL/6J mice (Jackson Laboratories) were used for this study. Compounds or vehicle/control were prepped with EtOH; PEG-400; Phosal 53 MCT (10:30:60, v/v). Four mice were tested per compound or vehicle/control. On Day 1, mice were administered a single dose of Dose A. On Day 2 (after 24 hours), tissue (bone marrow) was collected from one hind leg per mouse.
An MSD (Meso Scale Discovery) ELISA (enzyme-linked immunosorbent assay) based assay was used to determine BTK degradation in mouse bone marrow. The following materials and equipment were used: 10% NP40 solution (nonionic polyoxyethylene surfactant, ThermoFisher, cat no. 28324); protease inhibitor mini tablet (Roche, cat no. 05 892 970 001); PhosphoSTOP™ tablet (Roche, cat no. 04 906 837 001); Pierce™ BCA Protein Assay Kit (Thermofisher, Cat No. 23225); Precellys® 2 mL lysing tube with 2.8 mm beads (VWR, cat no. 10032-756); Bertin Precellys® 24/Cryolys® cooling system; 96-well MSD streptavidin pre-coated plates (MSD, cat no. L15SA-1); MSD Blocker A (MSD, cat no. R93BA-4); capture antibody, biotinylated BTK mAb (BD Biosciences, cat no. 624008; custom order); primary detection antibody, BTK RpAb (rabbit polyclonal antibody, CST, cat no. 8547S, D3H5 clone); secondary detection antibody, anti-Rabbit-Sulfo-Tag (MSD, cat no. R32AB-1); read Buffer, 4× (MSD, cat no. R92TC-1); recombinant BTK protein (Thermofisher, cat no. PR5442A); MSD Tris Wash Buffer (10×) (MSD, cat no. R61TX-1); PBS (phosphate-buffered saline); deionized water (diH2O); Lysis Buffer [0.2% NP40 in PBS+Protease Inhibitor tablet (1 tablet/10 mL)+PhosphoSTOP tablet (1 tablet/10 mL)]; 3% MSD Blocker A [MSD Blocker A+450 mL diH2O+50 mL]; and 10×MSD Tris Wash Buffer.
Lysis buffer [(PBS+0.2% NP40+PI (protease inhibitor)+PhosphoSTOP)] was prepared and put on ice until it was fully cold. Ice cold lysis buffer […] was added to each Precellys® tube containing beads and bone marrow sample. Sample tubes were transferred into Precellys® machine and homogenized using 5000 rpm—2×20 seconds. The sample lysates were centrifuged at 14,000 rpm for 20 minutes at 4° C. after homogenizing.
The protein concentration was determined using Pierce™ BCA Protein Assay Kit following manufacturer's recommended protocol. The protein normalized working solution was prepared, using 30 μg protein per sample lysate for assay.
A 300 ng/ml working stock solution of recombinant BTK protein in lysis buffer was prepared, and the sample was serially diluted at 3-fold dilution (10-point assay, highest concentration was 300 ng/mL and lowest concentration was 0.015 ng/mL)
MSD plate coating: Coating antibody (biotinylated-BTK mAb) stock solution was prepared at 1 μg/mL in PBS buffer. 50 μL/well capture antibody (Biotinylated BTK mAb) solution was added, and the plates were shaken gently at ambient temperature for two hours. The plates were washed 3 times with 1×MSD Tris Wash Buffer in a plate washer (300 μL/well), and the plates were blocked with 3% MSD Blocker A (150 μL/well). The plates were incubated for an additional 1-2 hours at ambient temperature with gentle shaking. The plates were washed 3 times with 1×MSD wash buffer using plate washer. Bone marrow lysates (30 μg) at a final volume of 50 μL/well were added into the plates. The serially diluted standard samples were added to the same plates at a final volume of 50 μL/well. The plates were incubated overnight at 4° C. with gentle shaking.
The plates were washed three times with 1×MSD wash buffer (prepared from 10× concentration buffer) using plate washer. Primary detection antibody at 50 μL/well was added (BTK RpAb; 1:1000 dilution in 1% MSD Blocker A). The plates were incubated for two hours at ambient temperature with gentle shaking. The plates were washed three times with 1×MSD wash buffer using plate washer. Anti-Rabbit-SULFO-TAG secondary antibodies (50 μl/well) were added, 1:500 diluted in 1% MSD Blocker A, and the plates were incubated for one to two hours at ambient temperature. […]

Chain of BTK protein in human whole blood (Q06187 whole entry): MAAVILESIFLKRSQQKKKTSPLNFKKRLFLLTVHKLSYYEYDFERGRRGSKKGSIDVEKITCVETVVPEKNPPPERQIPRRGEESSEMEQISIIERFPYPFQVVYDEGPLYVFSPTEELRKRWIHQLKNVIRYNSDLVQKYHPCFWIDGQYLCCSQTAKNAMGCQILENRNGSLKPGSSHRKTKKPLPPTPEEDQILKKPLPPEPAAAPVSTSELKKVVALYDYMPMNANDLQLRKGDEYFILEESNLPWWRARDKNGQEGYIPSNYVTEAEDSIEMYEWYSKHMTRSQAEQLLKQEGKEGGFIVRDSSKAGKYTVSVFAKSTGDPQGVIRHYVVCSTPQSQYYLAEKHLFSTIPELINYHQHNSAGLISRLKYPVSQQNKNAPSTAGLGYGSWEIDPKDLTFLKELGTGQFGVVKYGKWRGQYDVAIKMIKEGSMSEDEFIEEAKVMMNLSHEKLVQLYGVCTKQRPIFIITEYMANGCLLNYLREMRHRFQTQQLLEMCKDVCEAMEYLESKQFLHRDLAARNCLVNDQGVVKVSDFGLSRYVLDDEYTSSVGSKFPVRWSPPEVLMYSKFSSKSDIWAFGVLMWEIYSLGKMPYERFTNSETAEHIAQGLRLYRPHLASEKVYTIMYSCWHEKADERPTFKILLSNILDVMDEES
Chain of BTK in mouse bone marrow (P35991 whole entry): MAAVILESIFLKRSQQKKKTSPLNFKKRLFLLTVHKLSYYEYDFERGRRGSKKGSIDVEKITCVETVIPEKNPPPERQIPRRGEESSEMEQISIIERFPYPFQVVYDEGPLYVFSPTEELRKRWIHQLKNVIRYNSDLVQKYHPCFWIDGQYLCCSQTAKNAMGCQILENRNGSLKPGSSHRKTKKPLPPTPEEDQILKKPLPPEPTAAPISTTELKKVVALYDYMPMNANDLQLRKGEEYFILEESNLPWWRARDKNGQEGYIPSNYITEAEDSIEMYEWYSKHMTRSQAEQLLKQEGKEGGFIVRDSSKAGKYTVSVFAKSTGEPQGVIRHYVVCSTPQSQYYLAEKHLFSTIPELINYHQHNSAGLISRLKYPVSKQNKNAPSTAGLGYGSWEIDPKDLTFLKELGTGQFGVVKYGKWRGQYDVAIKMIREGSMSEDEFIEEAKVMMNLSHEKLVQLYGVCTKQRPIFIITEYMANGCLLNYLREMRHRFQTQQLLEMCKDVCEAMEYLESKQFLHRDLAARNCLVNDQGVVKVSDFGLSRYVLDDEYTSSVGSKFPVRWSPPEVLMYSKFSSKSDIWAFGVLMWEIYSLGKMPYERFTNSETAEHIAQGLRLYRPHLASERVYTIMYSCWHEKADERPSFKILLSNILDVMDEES

In the case of Cc1cc(-c2cc(Nc3ccc(N4CCN(CCc5ccc(N6CCC(=O)NC6=O)cc5)C[C@@H]4C(C)C)cn3)ncn2)ccc1[C@@H](C)NC(=O)c1nc(C(C)(C)C)no1 [Example 13, 3-tert-butyl-N-[(1R)-1-{4-[6-({5-[(2S)-4-{2-[4-(2,4-dioxo-1,3-diazinan-1-yl)phenyl]ethyl}-2-(propan-2-yl)piperazin-1-yl]pyridin-2-yl}amino)pyrimidin-4-yl]-2-methylphenyl}ethyl]-1,2,4-oxadiazole-5-carboxamide], the Dmax [1] is reported as 99% and the “Mouse Bone Marrow (%) (% remaining BTK, vehicle versus treated)” value [2] is reported as 26%.

For CC[C@@H]1CN(CCc2ccc(N3CCC(=O)NC3=O)cc2)CCN1c1ccc(Nc2cc(-c3ccc([C@@H](C)NC(=O)c4nc(C(C)(C)C)no4)c(C)c3)ncn2)nc1 [Example 8, 3-tert-butyl-N-[(1R)-1-{4-[6-({5-[(2R)-4-{2-[4-(2,4-dioxo-1,3-diazinan-1-yl)phenyl]ethyl}-2-ethylpiperazin-1-yl]pyridin-2-yl}amino)pyrimidin-4-yl]-2-methylphenyl}ethyl]-1,2,4-oxadiazole-5-carboxamide], the Dmax [1] was 98.6% and the “Mouse Bone Marrow (%) (% remaining BTK, vehicle versus treated)” value [2] was 30%.

Cc1c([C@@H](C)NC(=O)c2nc(C(C)(C)C)no2)ccc(-c2cc(Nc3ccc(N4CCN(CCc5ccc(N6CCC(=O)NC6=O)cc5)C[C@@H]4C)cn3)ncn2)c1F [Example 10, 3-tert-butyl-N-[(1R)-1-{4-[6-({5-[(2S)-4-{2-[4-(2,4-dioxo-1,3-diazinan-1-yl)phenyl]ethyl}-2-methylpiperazin-1-yl]pyridin-2-yl}amino)pyrimidin-4-yl]-3-fluoro-2-methylphenyl}ethyl]-1,2,4-oxadiazole-5-carboxamide] was tested, and the Dmax [1] was 98.5% and the “Mouse Bone Marrow (%) (% remaining BTK, vehicle versus treated)” value [2] was 9%.

For C[C@@H](NC(=O)c1nc(C(C)(C)C)no1)c1ccc(-c2cc(Nc3ccc(N4CCN(CCc5ccc(N6CCC(=O)NC6=O)cc5)C[C@@H]4C)cn3)ncn2)cc1Cl [Example 14, 3-tert-butyl-N-[(1R)-1-{2-chloro-4-[6-({5-[(2S)-4-{2-[4-(2,4-dioxo-1,3-diazinan-1-yl)phenyl]ethyl}-2-methylpiperazin-1-yl]pyridin-2-yl}amino)pyrimidin-4-yl]phenyl}ethyl]-1,2,4-oxadiazole-5-carboxamide], the Dmax [1] was 99.7% and the “Mouse Bone Marrow (%) (% remaining BTK, vehicle versus treated)” value [2] was 16%.

With Cc1cc(-c2cc(Nc3ccc(N4CCN(CCc5ccc(N6CCC(=O)NC6=O)cc5)CC4)cn3)ncn2)c(F)cc1[C@@H](C)NC(=O)c1nc(C(C)(C)C)no1 [Example 12, 3-tert-butyl-N-{(1R)-1-[4-(6-{[5-(4-{2-[4-(2,4-dioxo-1,3-diazinan-1-yl)phenyl]ethyl}piperazin-1-yl)pyridin-2-yl]amino}pyrimidin-4-yl)-5-fluoro-2-methylphenyl]ethyl}-1,2,4-oxadiazole-5-carboxamide] the Dmax [1] was 99.8% and the “Mouse Bone Marrow (%) (% remaining BTK, vehicle versus treated)” value [2] was 17%.

Cc1cc(-c2cc(Nc3ccc(N4CCN(CCc5ccc(N6CCC(=O)NC6=O)c(F)c5)C[C@H]4C)cn3)ncn2)ccc1[C@@H](C)NC(=O)c1nc(C(C)(C)C)no1 [Example 5, 3-tert-butyl-N-[(1R)-1-{4-[6-({5-[(2R)-4-{2-[4-(2,4-dioxo-1,3-diazinan-1-yl)-3-fluorophenyl]ethyl}-2-methylpiperazin-1-yl]pyridin-2-yl}amino)pyrimidin-4-yl]-2-methylphenyl}ethyl]-1,2,4-oxadiazole-5-carboxamide] was tested, and the Dmax [1] was 99.3% and the “Mouse Bone Marrow (%) (% remaining BTK, vehicle versus treated)” value [2] was 12%.

In the case of Cc1cc(-c2cc(Nc3ccc(N4CCN(CCc5ccc(N6CCC(=O)NC6=O)c(F)c5)C[C@@H]4C)cn3)ncn2)ccc1[C@@H](C)NC(=O)c1nc(C(C)(C)C)no1 [Example 4, 3-tert-butyl-N-[(1R)-1-{4-[6-({5-[(2S)-4-{2-[4-(2,4-dioxo-1,3-diazinan-1-yl)-3-fluorophenyl]ethyl}-2-methylpiperazin-1-yl]pyridin-2-yl}amino)pyrimidin-4-yl]-2-methylphenyl}ethyl]-1,2,4-oxadiazole-5-carboxamide], the Dmax [1] is reported as 99.8% and the “Mouse Bone Marrow (%) (% remaining BTK, vehicle versus treated)” value [2] is reported as 13%.

With Cc1cc(-c2cc(Nc3ccc(N4CCN(CCc5ccc(N6CCC(=O)NC6=O)cc5)C[C@@H]4C)cc3)ncn2)ccc1[C@@H](C)NC(=O)c1nc(C(C)(C)C)no1 [Example 18] the Dmax [1] was 99.5% and the “Mouse Bone Marrow (%) (% remaining BTK, vehicle versus treated)” value [2] was 25%.

From US12172992B2, “Pyrimidines for degrading Bruton's tyrosine kinase” (AbbVie Inc., priority 2022, dated 2024)
